Assay results: patent publication US9453242B2, “Method and culture medium for preparing mammalian ovum or embryo in which zona pellucida has been thinned or eliminated, and method for fertilization using mammalian ovum prepared by same method” (NATIONAL UNIVERISTY CORPORATION KUMAMOTO UNIVERSITY, priority 2010, dated 2016)

What was measured:
[1] = system: zona pellucida of a mouse unfertilized ovum; assay: Swelling of zona pellucida (area in zona pellucida) of unfertilized ovum; assay type: cell-based; conditions: reducing agents other than glutathione; FIG. 10, FIG. 11 (DTT 0.5, ascorbic acid 5, epicatechin 1 mM)
Description: Further, the influence of glutathione on swelling of zona pellucida was confirmed. […] Preparation of ovum” were treated with HTF culture media containing glutathione at various concentration at 37° C. for 6 hours, then, the area in zona pellucida was photographed under a microscope and measured by an image analysis software. The conditions of zona pellucida at glutathione concentrations of 0 mM, 1 mM, 2 mM and 10 mM were observed by an invert microscope.
The influence of other reducing agents (DTT, ascorbic acid (VC) and epicatechin (EC)) exerted on thinning and swelling of zona pellucida was confirmed in the same manner as in Example 2. The extent of swelling of the zona pellucida of an unfertilized ovum by the concentration of each reducing agent was photographed under a microscope, and determined according to the following formula. % Relative area in ZP=(area of zona pellucida in each experiment/area of zona pellucida at 0 mM)×100

[2] = system: frozen sperms of C57BL/6J mice; assay: In vitro fertilization after sperm pre-incubation with MBCD and/or glutathione; assay type: cell-based, mouse
Description: A sperm suspension is pre-incubated in 90 μl of a TYH culture medium at 37° C. for 30 minutes, and under a stereomicroscope, sperms showing motility are collected, avoiding nonmotile sperms, and used for fertilization. The pre-incubated sperm suspension (10 μl) is added to 90 μl of an HTF culture medium (±glutathione) into which cumulus-oocyte complexes (COCs) have been previously introduced (insemination), and these are co-incubated in an incubator for 5 to 6 hours (37° C., 5% CO2), thereby performing fertilization. Thereafter, the ovum is washed with drops of new HTF, and the ovum is observed. Those judged to parthenogenetic (only one pronucleus is recognized in ooplasm) are excluded, and on the following day (24 hours after insemination), only 2-cell stage embryos are selected, and fertilization rate is determined according to the following formula. In vitro fertilization rate (%)=(number of 2-cell stage embryo)/(number of 2-cell stage embryo+number of unfertilized ovum)×100
The TYH culture medium used for pre-incubation of sperms was prepared according to the above-described composition excepting that polyvinyl alcohol (1.0 mg/ml, available from SIGMA) was used instead of bovine serum albumin, and methyl-β-cyclodextrin (0.75 mM, available from SIGMA) was added. Further, the concentration of glutathione in the TYH culture medium was 1 mM, preparation was carried out in the same manner as in Example 1, and glutathione was added to the TYH culture medium directly before use. The influence on fertilization rate was compared among those containing methyl-β-cyclodextrin, those containing glutathione and those containing both compounds.
Fertilization was conducted with 90 μl of an HTF culture medium (in the case of addition of glutathione, the concentration was 1 mM) containing cumulus-oocyte complexes (COCs), in the same manner as in Example 1 (IVF/glutathione in table). As the sperm, frozen sperms of C57BL/6J mice were used, and processed according to FIG. 1. Thawed sperms were pre-incubated in a TYH culture medium (±glutathione, ±methyl-β-cyclodextrin) at 37° C. for 30 minutes, and sperms showing motility were collected and used for fertilization. The experiment was conducted five times.

Q: How did the “thinning and swelling of zona pellucida” value [1] turn out when O[C@@H](CS)[C@@H](O)CS [DTT] was run?
A: thinning and swelling of zona pellucida by treatment with DTT were confirmed

Q: How did the “thinning and swelling of zona pellucida” value [1] turn out when O=C1O[C@H]([C@@H](O)CO)C(O)=C1O [ascorbic acid] was run?
A: thinning or swelling of zona pellucida did not occur

Q: For methyl-β-cyclodextrin [MBCD], which “number of 2-cell stage embryo(%)” value ([2]; sperm pre-incubation MBCD + (0.75 mM), glutathione −, IVF glutathione −) is on record?
A: 65%

Q: And the “number of 2-cell stage embryo” value ([2]; sperm pre-incubation MBCD + (0.75 mM), glutathione −, IVF glutathione −, 323 oocytes)?
A: 210

Q: And the “effect of sperm pre-incubation on fertilization rate” value ([2]; sperms pre-incubated with 1 mM glutathione or 0.75 mM MBCD, 37° C., 30 minutes)?
A: fertilization rate was improved
